These results are taken from patent US20060100284A1, “Growth promotor” (priority 2002, published 2006).

The test system of experiment [1] is weaned pigs and growing swine. Description: Swine feeding test with feed additives. The format is in vivo. On the procedure:
The composition of the invention was tested using weaned pigs and growing swine. The test comprised a total of 240 swine from 30 different litters. […] The composition of the invention was compared to a control without additives and to an antibiotic feed additive (Avilamycin) at the weaning and growth stage.

Experiment [2] deals with slaughter animals. The settings on record: Kirchgessner et al. 1995; cited from earlier work.
Experiment [3] deals with weaned pigs and swine grown for pork meat. The settings on record: Partanen et al. 2002; cited from earlier work.
Setting [4] is: Growth and final growth stage, additive in feed (6 g/kg for acids).
Setting [5] is: Weaning stage, additive in feed (8 g/kg for acids).

As to avilamycin, in experiment [1] (setting [4]), the Daily growth is recorded as 845 g/day and the Final weight stood at 107.1 kg. In experiment [1] (setting [5]), this compound registered a Daily growth of 335 g/day and a Final weight of 19.3 kg.

As for `C/C=C/C=C/C(=O)O` [sorbic acid], in experiment [2], the “increase in weight of slaughter animals” value is given as “enhanced”.

For `O=CO` [F, formic acid], the Daily growth was determined as 869 g/day in experiment [1] (setting [4]) and 308 g/day in experiment [1] (setting [5]). The Final weight in experiment [1] (setting [4]) amounted to 106.0 kg; in experiment [1] (setting [5]) it was 18.5 kg. Moreover, in experiment [3], the “growth promoter effect in feed” value is reported as “acts as a growth promoter”.
